Where two headings read alike, the source gives them in different places.
Columns and labels:
HUVEC = assay: Genome-wide RNA sequencing of HUVEC; format: cell-based, human; settings: for effects on gene expression by RNA-Seq: same conditions (75 μM, 24 h)
Procedure: Cell culture. hCMEC/D3 cells at passages 30-37 were grown to confluence on collagen-coated plates and cultured using in EGM-2 MV medium and supplemented with complements obtained from the manufacturer (Lonza) as previously reported (31). HUVEC (Lonza) at passages 4-7 were grown to confluence on gelatin-coated plates and maintained using complete EGM-2 media (Lonza). HKi2, 10 mM in DMSO, was maintained at room temperature for 30 min rotating before use. Cells were then treated with HKi2 at the concentrations and times indicated for each experiment. Vehicle cells were treated with the same volume of DMSO as used with HKi2. Cells were maintained at 37° C. in 95% air and 5% CO2. Genome-wide RNA sequencing. The quantity (ND-1000 spectrophotometer; NanoDrop Technologies) and quality (Bioanalyzer; Agilent) of total RNA were analyzed. Only RNA with a RNA integrity number (RIN) greater than 8 RNA was used for library preparation. Libraries were generated using Illumina's TruSeq Stranded mRNA Sample Prep kit using 400 ng RNA. RNA libraries were multiplexed and sequenced with 100-bp […] single-end reads (SR100) to a depth of 30 million reads per sample on an Illumina HiSeq2500. Fastq files from RNA-seq experiments were mapped to the human genome (GRCh primary assembly release 96) using Hisat2 with default parameters. All bioinformatics analyses were conducted in R using the […] package RNAseq workflows. Differential gene expression analysis was conducted with EdgeR.

HEG1-KRIT1 interaction = target: T1, HEG1-KRIT1 interaction (Homo sapiens, UniProt O00522); assay: Flow cytometry assay for the HEG1-KRIT1 FERM domain interaction (competition binding on HEG1 matrix beads); settings: read-out: IC50
T1 construct: His6-EGFP-KRIT1 (WT) FERM domain (417-736) and KRIT1 (L717,721A) mutant were cloned into pETM-11; His6 (N); made in house; host or cells: E. coli BL21 Star (DE3)
Procedure: Bead Coupling. SPHERO Neutravidin Polystyrene Particles, […] (Spherotech) were washed twice with wash buffer (20 mM Tris, 150 mM NaCl. pH 7.4 containing 0.01% NP-40, and 1 mM EDTA). Prior to incubation with biotin-tagged HEG 1 cytoplasmic tail protein, an appropriate volume of bead slurry was passivated to inhibit non-specific binding by incubation for 30 minutes at room temperature in reaction buffer containing 0.1% BSA (20 mM Tris, 150 mM NaCl, pH 7.4 0.01% NP-40, 1 mM EDTA, 1 mM DTT, and 0.1% BSA). Passivated beads were collected by centrifugation, resuspended to 3,600 particles/μl in reaction buffer and biotinylated HEG1 tail was added to a final concentration of 150 nM and incubated overnight on a rotator at 4° C. The beads were washed three times by centrifugation with ice-cold reaction buffer to remove unbound HEG1 peptide. Beads were diluted such that a final concentration of 2000 beads/μL were available for addition to assay plates.
Flow cytometry assay. A final volume of 100 μl containing 140 nM EGFP-KRIT1 FERM domain, with 10% DMSO or 10% compounds in DMSO, was incubated for 15 minutes at room temperature on a rotator. 100 μl of beads were added to the mixture for a final volume of 200 μl at 1,000 particles/μl with 70 nM EGFP-KRIT1 and incubated for 15 minutes at room temperature on a rotator. The control beads were: without KRIT1 (minimum signal); with KRIT1 (maximum signal); and with KRIT1 plus 2 μM HEG1 7-mer (positive blocking control). The EGFP fluorescence was measured using a BD Accuri flow cytometer. For screening purposes, the final volume of the reaction was scaled down to 10 μl and samples were processed as previously described (27). For FIGS. 1D-1F, 2B, and 3E, a representative experiment is shown of at the least 3 independent repeats.
Assay plate assembly. Plate assays were performed in 384-well microtiter plates (Greiner Bio-one, #784101). Reaction buffer. HEG1-coupled beads, and EGFP-KRIT-FERM constructs were added using a MultiFlo™ Microplate Dispenser (BioTek Instruments, Inc.). Compounds were added to single-point assay plates pre-loaded with reaction buffer using a Biomek^NX liquid handler (BeckmanCoulter) equipped with a […] pintool (V & P Scientific, Inc.). Compound libraries were dispensed to a final concentration of 10 μM. An equal volume (10 nL) of DMSO was added to the vehicle control wells. Following the addition of library compounds, 5 μL of assay buffer was added and the plates were mixed before addition of 5 μL of the protein-coupled bead mixtures; Plates were protected from light and incubated on a rotator for 15 minutes at room temperature. Binding of EGFP-KRIT to HEG1 coupled beads was evaluated using an Accuri C6 flow cytometer.
Data Acquisition. Assay plates were sampled using the HyperCyt™ high throughput flow cytometry platform (Intellicyt; Albuquerque, N. Mex.). During sampling, the probe moves from well to well and samples 1-2 μL from each well pausing 0.4 sec in the air before sampling the next well. The resulting sample stream consisting of 384 separated samples is delivered to an Accuri C6 flow cytometer (BD Biosciences; San Jose, Calif.). Plate data are acquired as time-resolved files that are parsed by software-based well identification algorithms and merged with compound library files. Plate performance was validated using the Z-prime calculation (28).
Compounds that satisfied hit selection criteria in the primary screen were cherry-picked from compound storage plates and tested to confirm activity and determine potency. Dose response data points were fitted by Prism software (GraphPad Software Inc., San Diego, Calif.) using nonlinear least-squares regression in a sigmoidal dose-response model with variable slope, also known as the 4-parameter logistic equation.

PARD3 binding to HEG1 = assay: PARD3 pulldown assay with HEG1 matrix; design: species or system human (HUVEC lysates); settings: 35 μM compound, HUVEC lysates, HEG1 WT matrix
Procedure: PARD3 pulldown assay. Neutravidin agarose beads (Thermo Fisher) matrix with wild-type HEG1 cytoplasmic tail (1274-1381) and ΔYF (1274-1379) were previously described (5, 26). HUVEC were collected in cold lysis buffer (50 mM Tris-HCl, pH 7.4, 100 mM NaCl, 5 mM MgCl2, 0.5% NP-40) plus protease inhibitor cocktail (Roche). A total of 20 μl of HEG1 matrix was added to 600 μg of clarified lysates and incubated at 4° C. overnight while rotating. All conditions contained either vehicle DMSO, 35 μM HKi2 or 35 μM 2-hydroxy-1-naphthoic acid. After three washes with cold lysis buffer, beads were mixed with sample buffer and proteins were separated by SDS-PAGE. Bound PARD3 was detected by using polyclonal Rabbit anti-PARD3 (Millipore, 07-330) antibody.

KLF4 and KLF2 mRNA [1] = assay: KLF4 and KLF2 mRNA expression in hCMEC/D3 cells by qPCR; format: cell-based, human
Procedure: (§1) Cell culture. hCMEC/D3 cells at passages 30-37 were grown to confluence on collagen-coated plates and cultured using in EGM-2 MV medium and supplemented with complements obtained from the manufacturer (Lonza) as previously reported (31). HUVEC (Lonza) at passages 4-7 were grown to confluence on gelatin-coated plates and maintained using complete EGM-2 media (Lonza). HKi2, 10 mM in DMSO, was maintained at room temperature for 30 min rotating before use. Cells were then treated with HKi2 at the concentrations and times indicated for each experiment. Vehicle cells were treated with the same volume of DMSO as used with HKi2. Cells were maintained at 37° C. in 95% air and 5% CO2. RNA extraction and qRT-PCR. HUVECs total RNA were isolated using MagMAXTM-96 for Microarrays Total RNA Isolation Kit, according to the manufacturer's protocol (Thermo Fisher Scientific Cat #AM1839). qPCR analysis, single-stranded cDNA was produced from 10 ng RNA isolated from HUVECs using PrimeScriptTM RT Master Mix according to the manufacturer's protocol (Takara Cat. #R[…]). The levels of genes were analyzed using iTaqTM Universal SYBR Green (BioRad Cat #1725122) and thermal cycler (CFX96 Real-Time System; Bio-Rad) according to the manufacturer's protocol. Actin mRNA levels was used as internal control, and the 2^-ΔΔCT method was used for data analysis.

log P = format: physicochemical; settings: method not stated (FIG. 2A)
[2] = Aqueous solubility in assay buffer; format: physicochemical
PI3K/Akt signaling = PI3K/Akt signaling in hCMEC/D3 cells by Western blot; format: cell-based, human; settings: hCMEC/D3, 50 μM, 1 h
Procedure: Cell culture. hCMEC/D3 cells at passages 30-37 were grown to confluence on collagen-coated plates and cultured using in EGM-2 MV medium and supplemented with complements obtained from the manufacturer (Lonza) as previously reported (31). HUVEC (Lonza) at passages 4-7 were grown to confluence on gelatin-coated plates and maintained using complete EGM-2 media (Lonza). HKi2, 10 mM in DMSO, was maintained at room temperature for 30 min rotating before use. Cells were then treated with HKi2 at the concentrations and times indicated for each experiment. Vehicle cells were treated with the same volume of DMSO as used with HKi2. Cells were maintained at 37° C. in 95% air and 5% CO2. Western blotting and immunoprecipitation. […] Cell lysates were spun at 20,000×g for 15 minutes at 4° C. The PI3 Kinase was immunoprecipitated using the mouse monoclonal antibody as described in the manufacturer instructions and supernatants were stored at -80° C. Samples were resolved on 4-12% gradient gel and blotted using specific antibodies, as indicated. Band intensity was determined using a Li-Cor system and values obtained for phosphoproteins were normalized to the total protein in the same sample. Antibodies to phospho-Akt-Ser473 (clone: 193H12; rabbit mAb; #4058; 1:250), Akt (clone: 40D4; mouse mAb; #2920; 1:500), phospho-PI3 Kinase p85 […] (rabbit polyclonal; #4228; 1:500) were from Cell Signaling. […]

KLF4 and KLF2 mRNA [3] = assay: KLF4 and KLF2 mRNA expression in HUVEC by qPCR; format: cell-based, human; settings: dose response, 24 hours
Procedure: as §1

klf2a = klf2a reporter Tg(klf2a:H2B-EGFP) zebrafish embryos; format: in vivo; settings: 4 μM, 4 h, added at 26 hpf, imaged at 30 hpf
Text: Zebrafish. A previously reported transgenic zebrafish line Tg(klf2a:H2B-EGFP) was used to monitor the expression of klf2a (32, 33). […] At 30 hpf, these treated embryos were scanned for EGFP expression by Zeiss LSM 880 Airiscan.

[4] = Table 2, flow cytometry-screening assay, NI = no inhibition detected up to 500 μM

T1 sequence (O00522 417-736): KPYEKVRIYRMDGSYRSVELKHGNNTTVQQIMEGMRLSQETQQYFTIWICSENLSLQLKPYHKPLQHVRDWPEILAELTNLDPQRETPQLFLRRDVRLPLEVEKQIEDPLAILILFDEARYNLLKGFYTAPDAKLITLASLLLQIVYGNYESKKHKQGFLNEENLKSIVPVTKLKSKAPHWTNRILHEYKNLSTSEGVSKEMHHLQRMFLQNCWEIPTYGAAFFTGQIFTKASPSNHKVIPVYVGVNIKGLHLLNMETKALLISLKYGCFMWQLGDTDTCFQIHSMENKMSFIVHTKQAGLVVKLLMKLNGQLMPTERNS

Oc1ccc2ccccc2c1 [Compound 10, naphthalene-2-ol]
effects on gene expression by RNA-Seq (HUVEC): no significant effects | IC50 (HEG1-KRIT1 interaction; [4]): > 500 µM

O=C(O)c1c(O)ccc2ccccc12 [Compound 9, 2-hydroxy-1-naphthoic acid]
PARD3 binding to HEG1 (PARD3 binding to HEG1): no effects | effects on gene expression by RNA-Seq (HUVEC): no significant effects | KLF4 or KLF2 elevation (KLF4 and KLF2 mRNA [1]; hCMEC/D3, 25 μM, 4 hours): did not elevate | IC50 (HEG1-KRIT1 interaction; [4]): > 500 µM

CC(NC(=O)c1ccccc1N=Cc1c(O)ccc2ccccc12)c1ccccc1 (centres unmarked) [Sirtinol (Hki1), 2-[[(2-hydroxy-1-naphthalenyl)methylene]amino]-N-(1-phenylethyl)-benzamide, reference compound]
logP (log P): 5.7 | solubility ([2]; assay buffer, aqueous buffer, in the buffer conditions of the assay): < 50 µM | IC50 (HEG1-KRIT1 interaction; inhibition of the HEG1-KRIT1 interaction, flow cytometry assay): ~10 µM

O=Cc1c(O)ccc2ccccc12 [2-hydroxy-1-naphtaldehyde (Hki2), 2-hydroxy-1-naphthaldehyde]
increase in Akt activation (pAkt-S473) (PI3K/Akt signaling; Western blot): 2.2 fold | increase in PI3K activity (PI3K/Akt signaling; phospho-p85): 2 fold | PARD3 binding to HEG1 (PARD3 binding to HEG1): no effects | KLF4 and KLF2 mRNA levels (KLF4 and KLF2 mRNA [3]): upregulated | VEGFA gene expression (HUVEC; 75 μM, 24 h, RNA-seq): upregulation | genes differentially expressed between treatment and vehicle control (HUVEC; 75 μM, 24 h, corrected P<0.05, ≥2.5-fold change): 457 genes | CCL2 (Monocyte chemoattractant protein) expression, ratio experimental/control FPKM (HUVEC; 75 μM, RNA-Seq, n=3): −7.95 | CXCR4 (C-X-C chemokine receptor type 4) expression, ratio experimental/control FPKM (HUVEC; 75 μM, RNA-Seq, n=3): −4.41 | KLF2 expression, ratio experimental/control FPKM (HUVEC; 75 μM, RNA-Seq, n=3): 3.07 | KLF4 expression, ratio experimental/control FPKM (HUVEC; 75 μM, RNA-Seq, n=3): 3.89 | THBD (Thrombomodulin) expression, ratio experimental/control FPKM (HUVEC; 75 μM, RNA-Seq, n=3): 8.34 | THBSI (Thrombospondin 1) expression, ratio experimental/control FPKM (HUVEC; 75 μM, RNA-Seq, n=3): −5.78 | solubility in aqueous solution ([2]; qualitative, compared with HKi1): largely improved | KLF4 and KLF2 mRNA levels (KLF4 and KLF2 mRNA [1]; hCMEC/D3, 25 μM, 12 h): upregulated | KLF2 upregulation, fold increase (KLF4 and KLF2 mRNA [1]; hCMEC/D3, 50 μM, 4 h): ~1.5 fold | KLF4 upregulation, fold increase (KLF4 and KLF2 mRNA [1]; hCMEC/D3, 50 μM, 4 h): ~3.5 fold | KLF2 mRNA levels, fold increase (KLF4 and KLF2 mRNA [1]; hCMEC/D3, 50 μM, 12 h): ~2.3 fold | KLF4 mRNA levels, fold increase (KLF4 and KLF2 mRNA [1]; hCMEC/D3, 50 μM, 12 h): ~6.5 fold | KLF4 levels, fold increase (KLF4 and KLF2 mRNA [1]; hCMEC/D3, 50 μM, 24 h): ~6 fold | nuclear EGFP (klf2a reporter) in arterial and venous endothelium (klf2a): increase

— patent US20220304958A1, “SMALL MOLECULE INHIBITORS OF A PROTEIN COMPLEX” (THE REGENTS OF THE UNIVERSITY OF CALIFORNIA, priority 2019, published 2022)
